# Entries after “also recorded” stand apart in the source; their conditions may differ. Structures can show the parent of a compound that is named as a salt.
# Key:
# Type in all cases: in vivo
# [1] = system: Kentucky and Merion turfgrass mixture; test: Turfgrass growth retardation (height and fresh weight of clippings) after spraying; settings: for % Reduction in Weight / Reduction in Height: vs control
# Method: Two known plant growth regulants were similarly tested. Some grass samples were not treated, only fertilized, as controls. Before treatment, the grass was cut and then fertilized with a 20-20-20 water-soluble fertilizer. Three pots were sprayed per treatment. […] The pots were placed in a plant growth room and were watered daily. The grass was cut at 21, 49 and 84 days after being treated; the blade height and total fresh weight of the clippings were measured.
# [2] = system: field grown tomato plants; test: Fruit set and phytotoxicity in field grown tomato plants; settings: for Increase Over Control (%) of fruit set: 24 days; for Fruit Set Per Plant (After 24 days) / Phytotoxicity: 24 days after treatment; for Increase (%) of fruit set: initial to 24 days
# Source text: To determine fruit set effects by compounds of this invention, field grown tomato plants were foliage sprayed with the cis-2,5-dimethylpyrrolidine salt of […], 9-cis-2,5-dimethyl-1-pyrrolidinyl-2-chlorofluorene-9-carboxylic acid, methyl ester, and the commercial plant growth regulant, MAINTAIN CF-125 (methyl-2-chloro-9hydroxyfluorene-9-carboxylate, manufactured by U.S. Borax and Chemical Corp.). Rates of application employed were 5, 25, and 100 ppm when the tomato plants were in the late blooming to early fruit setting stage. Untreated plants were included in the test as controls. Five plants were sprayed for each chemical treatment. The number of fruit set and the degree of phytotoxicity to the plants were determined 24 days after treatment.
# [3] = system: field grown tomato plants; test: Overall yield and fruit size of field grown tomatoes; settings: for Fruit Size, Green (% of Control): control 104.0 g; for Fruit Size, Red (% of Control): control 105.5 g
# Source text: This example illustrates the effects of compounds of this invention on overall yield of tomatoes. For the test, field grown tomato plants, when in the early flowering stage, were foliage sprayed with the particular compounds of the invention designated below, and with the commercial product CF-125 (Maintain), at rates of 10, 50 and 500 ppm. These rates correspond to applications of 3.69 g, 18.54 g and 185.4 g/hectare, respectively. Each treatment consisted of five plants; the experimental design was a complete randomized block with three replications. A block of untreated plants was included as the control. The fruit was harvested by hand and separated into […] ripe fruit and marketable green fruit.
# soybean plants = test: Soybean yield after foliar spray at early flowering stage; settings: for Yield Improvement %: vs control
# Source text: Two 50 cm rows of soybean plants at the early flowering stage were sprayed with 100 ppm or 500 ppm of the cis-2,5-dimethylpyrrolidine salt of 9-fluorenecarboxylic acid, using a spray volume of about 375 liters/hectare (40 gallons/acre). For comparison, other rows were sprayed with like concentrations of two known compounds as designated below. Also 2 untreated rows were maintained to serve as a control: each of the plots was weeded by hand as needed. At maturity, each plot was harvested and the yield was determined.
# [4] = 1.12 kilogram/hectare, after 21 days
# [5] = 1.12 kilogram/hectare, after 49 days
# [6] = 1.12 kilogram/hectare, after 84 days
# [7] = 2.24 kilogram/hectare, after 21 days
# [8] = 2.24 kilogram/hectare, after 49 days
# [9] = 2.24 kilogram/hectare, after 84 days
# [10] = 4.48 kilogram/hectare, after 49 days
# [11] = 4.48 kilogram/hectare, after 84 days
smiles,measurement,setting,value
"O=C(O)c1cccc2c1Cc1ccccc1-2 [Example 1, cis-2,5-dimethyl-1-pyrrolidine salt of 1-fluorenecarboxylic acid]",% Reduction in Weight,[1]; [4],76%
same,Reduction in Height,[1]; [4],50%
same,% Reduction in Weight,[1]; [5],45%
same,Reduction in Height,[1]; [5],45%
same,% Reduction in Weight,[1]; [6],0%
same,Reduction in Height,[1]; [6],0%
same,% Reduction in Weight,[1]; [7],73%
same,Reduction in Height,[1]; [7],48%
same,% Reduction in Weight,[1]; [8],64%
same,Reduction in Height,[1]; [8],46%
same,% Reduction in Weight,[1]; [9],0%
same,Reduction in Height,[1]; [9],0%
same,Reduction in Height,"[1]; 4.48 kilogram/hectare, after 21 days",56%
same,% Reduction in Weight,[1]; [10],63%
same,Reduction in Height,[1]; [10],46%
same,% Reduction in Weight,[1]; [11],19%
same,Reduction in Height,[1]; [11],31%
same,"appearance of treated turf (leaf, texture)",[1]; in words,"fine leaf and smooth texture; it did not have the twisted, yellowish leaves"
same,activity in controlling grass growth,"[1]; in words, compared with MAINTAIN CF-125 and MOW-LESS",more active in controlling grass growth than either MAINTAIN CF-125 or MOW-LESS
same,% Reduction in Weight,"[1]; third dosage column, printed 1.12 kilogram/hectare, after 21 days",75%
same,Increase Over Control (%) of fruit set,[2]; 5 ppm,35%
same,Fruit Set Per Plant (After 24 days),[2]; 5 ppm,16.2
same,Phytotoxicity,[2]; 5 ppm,0
same,Fruit Set Per Plant (Initial),[2]; 5 ppm,7.6
same,Increase (%) of fruit set,[2]; 5 ppm,108%
same,Increase Over Control (%) of fruit set,[2]; 25 ppm,18%
same,Fruit Set Per Plant (After 24 days),[2]; 25 ppm,21.0
same,Phytotoxicity,[2]; 25 ppm,0
same,Fruit Set Per Plant (Initial),[2]; 25 ppm,11.0
same,Increase (%) of fruit set,[2]; 25 ppm,91%
same,Increase Over Control (%) of fruit set,[2]; 100 ppm,47%
same,Fruit Set Per Plant (After 24 days),[2]; 100 ppm,23.8
same,Phytotoxicity,[2]; 100 ppm,light
same,Fruit Set Per Plant (Initial),[2]; 100 ppm,10.8
same,Increase (%) of fruit set,[2]; 100 ppm,120%
same,"tomato yield / fruit size, in words","[3]; 10, 50 and 500 ppm, Example 1 decrease at 500 ppm","enhanced, at the rates applied, either the total yield of tomatoes and/or the percentage of red fruit vs. green fruit; also recorded: caused a decrease in all yields when applied at a rate of 500 ppm"
same,"Fruit Yield, Green (% of Control)",[3]; 10 ppm,92 % of Control
same,"Fruit Yield, Red (% of Control)",[3]; 10 ppm,152 % of Control
same,Total Yield (% of Control),[3]; 10 ppm,113 % of Control
same,"Fruit Size, Green (% of Control)",[3]; 10 ppm,76 % of Control
same,"Fruit Size, Red (% of Control)",[3]; 10 ppm,87 % of Control
same,"Fruit Yield, Green (% of Control)",[3]; 50 ppm,45 % of Control
same,"Fruit Yield, Red (% of Control)",[3]; 50 ppm,149 % of Control
same,Total Yield (% of Control),[3]; 50 ppm,80 % of Control
same,"Fruit Size, Green (% of Control)",[3]; 50 ppm,93 % of Control
same,"Fruit Size, Red (% of Control)",[3]; 50 ppm,73 % of Control
same,"Fruit Yield, Green (% of Control)",[3]; 500 ppm,54 % of Control
same,"Fruit Yield, Red (% of Control)",[3]; 500 ppm,68 % of Control
same,Total Yield (% of Control),[3]; 500 ppm,59 % of Control
same,"Fruit Size, Green (% of Control)",[3]; 500 ppm,87 % of Control
same,"Fruit Size, Red (% of Control)",[3]; 500 ppm,79 % of Control
same,Yield (Kilograms) × 10^2,soybean plants; 100 ppm,19.38 Kilograms × 10^2
same,Yield Improvement %,soybean plants; 100 ppm,9.8%
same,Yield (Kilograms) × 10^2,soybean plants; 500 ppm,21.98 Kilograms × 10^2
same,Yield Improvement %,soybean plants; 500 ppm,24.1%
